Experimental data from patent publication US7446094B2, “Cytotoxic depsipeptides” (Instituto Biomar S.A., priority 2003, dated 2008).
pIC50: −log10 of the molar value.

Legend:
[1] = test system: human colon tumour (HT-29 cell line) xenografts; assay: Human colon tumour xenograft, net tumour growth; format: in vivo, female athymic mice; settings: for Net Tumour Growth ± S.E.M.: HT-29 xenograft, single iv dose 0.5 mg/kg
Text: (§1) At different times, three human tumour cell lines MX-1 (breast), HT-29 (colon), and LX-1 (non-small cell lung), respectively, were implanted subcutaneously into separate groups of recipient female athymic mice as a small seedling of approximately 2-3 mm^3. Each tumour type was then allowed to grow inside the animal to reach a group mean size of 100±15 mm^3, at which time tumour-bearing mice were randomized into groups (Staging Day). The Staging Day also coincided with Day 0 for drug dosing.
(§2) The test article was administered as a single intravenous (iv) bolus injection (i.e., QD×1) on the Staging Day (Day 0).
(§3) Tumour burden was determined for all animals throughout the study using a caliper, and the frequency was at least twice per week.
(§4) Protocols and criteria for drug activity were derived from those established by the National Cancer Institute for tumour systems similar to those used in these studies (NIH Publication No. 84-2635, In vivo cancer models 1976-1982). Statistical analysis of tumour volumes for each group of drug treated animals was performed according to the Mann Whitney nonparametric test based on comparisons to the vehicle control cohort within the same experiment.
(§5) Tumour lengths (L) and widths (W) were measured in millimeters (mm) using calipers, recorded, and tumour volume was calculated by the formula: Volume (mm^3)=L×W^2×0.5. Individual values were determined for each tumour-bearing athymic- mouse and specified day of measurement (day D). On the tumour Staging Day (Day 0), the tumour volume of a treated animal (T01) was subtracted from the corresponding tumour volume on each observation day (TD1). This provided the change (Δ) in tumour volume for the said treated athymic mouse (ΔT1=TD1−T01). The change in tumour volumes for each member of the control cohort (ΔC) was calculated in a similar fashion as above.
(§6) At randomization (Day 0) the average volume of the tumour mass was 100±15 mm^3 and the “net tumour growth” is really a difference between the size of the tumour on Day X and that on Day 0. The parameter S.E.M. is commonly used in statistics and stands for standard error of the mean in a distribution of N (size) experimental values.

SK-OV-3 = assay: MTS tetrazolium cytotoxicity assay; format: cell-based; settings: Homo sapiens, SK-OV-3, 72 h, read-out: Cytotoxic activity (IC50)
Text: (§7) The finality of these assays is to interrupt the growth of an “in vitro” tumour cell culture by means a continued exhibition of the cells to the sample to be testing. The following human cell lines were used:
(§8) Tetrazolium Assay MTS is based on metabolic reduction of MTS to solubilized formazan crystals by the metabolically active mitochondria of living cells. For this reason, the methodology includes counting of the cell lines based on viability staining to ensure that cell concentrations are corrected to allow for 100% living cells into each well in lieu of Coulter counting or estimated dilutions based on standard growth curves.
(§9) Medium containing drug was removed at the end of the treatment and culture plates rinsed one time with PBS. Afterward, cells were incubated in 200 μl of drug-free medium until 72 hours. After appropriate incubation time 25 μl of MTS+PMS solution was added to each microtiter well and incubated for 4 hours at 37° C. Plates were then removed from the incubator and placed on plate shaker for 5 minutes (covered for protection from light). Optical densities were read at 490 nm on spectrophotometer plate reader. Data was analyzed using Softmax.
(§10) Data is presented as IC50 potencies calculated from 3rd order polynomial regression curves using Microsoft Excel and then manually interpolated.

LNCAP = assay: MTS tetrazolium cytotoxicity assay; format: cell-based; settings: Homo sapiens, 72 h, read-out: Cytotoxic activity (IC50)
Text: as §7, §8, §9, §10

Hs746t = assay: MTS tetrazolium cytotoxicity assay; format: cell-based; settings: Homo sapiens, 72 h, read-out: Cytotoxic activity (IC50)
Text: as §7, §8, §9, §10

SW 694 = assay: MTS tetrazolium cytotoxicity assay; format: cell-based; settings: Homo sapiens, 72 h, read-out: Cytotoxic activity (IC50)
Text: as §7, §8, §9, §10

MC116 = assay: MTS tetrazolium cytotoxicity assay; format: cell-based; settings: Homo sapiens, MC116, 72 h, read-out: Cytotoxic activity (IC50)
Text: as §7, §8, §9, §10

SK-HEP-1 = assay: MTS tetrazolium cytotoxicity assay; format: cell-based; settings: Homo sapiens, SK-HEP1, 72 h, read-out: Cytotoxic activity (IC50)
Text: as §7, §8, §9, §10

5637 = assay: MTS tetrazolium cytotoxicity assay; format: cell-based; settings: Homo sapiens, 72 h, read-out: Cytotoxic activity (IC50)
Text: as §7, §8, §9, §10

HT-29 = assay: MTS tetrazolium cytotoxicity assay; format: cell-based; settings: Homo sapiens, HT-29, 72 h, read-out: Cytotoxic activity (IC50)
Text: as §7, §8, §9, §10

FADU = assay: MTS tetrazolium cytotoxicity assay; format: cell-based; settings: Homo sapiens, 72 h, read-out: Cytotoxic activity (IC50)
Text: as §7, §8, §9, §10

A549 = assay: MTS tetrazolium cytotoxicity assay; format: cell-based; settings: Homo sapiens, A549, 72 h, read-out: Cytotoxic activity (IC50)
Text: as §7, §8, §9, §10

NCI-H187 = assay: MTS tetrazolium cytotoxicity assay; format: cell-based; settings: Homo sapiens, NCI-H187, 72 h, read-out: Cytotoxic activity (IC50)
Text: as §7, §8, §9, §10

Mel-28 = assay: MTS tetrazolium cytotoxicity assay; format: cell-based; settings: Homo sapiens, SK-MEL-28, 72 h, read-out: Cytotoxic activity (IC50)
Text: as §7, §8, §9, §10

MX-1 = assay: MTS tetrazolium cytotoxicity assay; format: cell-based; settings: Homo sapiens, MX1, 72 h, read-out: Cytotoxic activity (IC50)
Text: as §7, §8, §9, §10

HL-60 = assay: MTS tetrazolium cytotoxicity assay; format: cell-based; settings: Homo sapiens, HL-60, 72 h, read-out: Cytotoxic activity (IC50)
Text: as §7, §8, §9, §10

PC-3 = assay: MTS tetrazolium cytotoxicity assay; format: cell-based; settings: Homo sapiens, PC-3, 72 h, read-out: Cytotoxic activity (IC50)
Text: as §7, §8, §9, §10

OSA-FH = assay: MTS tetrazolium cytotoxicity assay; format: cell-based; settings: Homo sapiens, 72 h, read-out: Cytotoxic activity (IC50)
Text: as §7, §8, §9, §10

786-O = assay: MTS tetrazolium cytotoxicity assay; format: cell-based; settings: Homo sapiens, 786-0, 72 h, read-out: Cytotoxic activity (IC50)
Text: as §7, §8, §9, §10

K562 = assay: MTS tetrazolium cytotoxicity assay; format: cell-based; settings: Homo sapiens, K562, 72 h, read-out: Cytotoxic activity (IC50)
Text: as §7, §8, §9, §10

CHSA = assay: MTS tetrazolium cytotoxicity assay; format: cell-based; settings: Homo sapiens, 72 h, read-out: Cytotoxic activity (IC50)
Text: as §7, §8, §9, §10

PANC-1 = assay: MTS tetrazolium cytotoxicity assay; format: cell-based; settings: Homo sapiens, PANC-1, 72 h, read-out: Cytotoxic activity (IC50)
Text: as §7, §8, §9, §10

SW-579 = assay: MTS tetrazolium cytotoxicity assay; format: cell-based; settings: Homo sapiens, SW579, 72 h, read-out: Cytotoxic activity (IC50)
Text: as §7, §8, §9, §10

SK-N-MC = assay: MTS tetrazolium cytotoxicity assay; format: cell-based; settings: Homo sapiens, 72 h, read-out: Cytotoxic activity (IC50)
Text: as §7, §8, §9, §10

BT-474 = assay: MTS tetrazolium cytotoxicity assay; format: cell-based; settings: Homo sapiens, BT-474, 72 h, read-out: Cytotoxic activity (IC50)
Text: as §7, §8, §9, §10

TT = assay: MTS tetrazolium cytotoxicity assay; format: cell-based; settings: Homo sapiens, 72 h, read-out: Cytotoxic activity (IC50)
Text: as §7, §8, §9, §10

DU-145 = assay: MTS tetrazolium cytotoxicity assay; format: cell-based; settings: Homo sapiens, DU-145, 72 h, read-out: Cytotoxic activity (IC50)
Text: as §7, §8, §9, §10

H9 = assay: MTS tetrazolium cytotoxicity assay; format: cell-based; settings: Homo sapiens, H9, 72 h, read-out: Cytotoxic activity (IC50)
Text: as §7, §8, §9, §10

Y-79 = assay: MTS tetrazolium cytotoxicity assay; format: cell-based; settings: Homo sapiens, Y79, 72 h, read-out: Cytotoxic activity (IC50)
Text: as §7, §8, §9, §10

[2] = test system: human breast tumour (MX-1 cell line) xenografts; assay: Human breast tumour xenograft, net tumour growth; format: in vivo, female athymic mice; set-up: key to Net Tumour Growth ± S.E.M.: †: High mortality prevented meaningful statistical analysis; settings: for Net Tumour Growth ± S.E.M.: MX-1 xenograft
Text: as §1, §2, §3, §4, §5, §6

[3] = test system: human non-small cell lung tumour (LX-1 cell line) xenografts; assay: Human non-small cell lung tumour xenograft, net tumour growth; format: in vivo, female athymic mice; settings: for Net Tumour Growth ± S.E.M.: LX-1 xenograft
Text: as §1, §2, §3, §4, §5, §6

[4] = Maximum tolerated dose in mice; settings: CD-1, mouse, in vivo
Hela S3 cells = settings: from JP 11180997; cited from earlier work
[5] = single iv dose 1.0 mg/kg, DAY 3
[6] = single iv dose 1.0 mg/kg, DAY 6
[7] = single iv dose 1.0 mg/kg, DAY 10
[8] = single iv dose 1.5 mg/kg, DAY 3
[9] = single iv dose 1.5 mg/kg, DAY 6
[10] = single iv dose 1.5 mg/kg, DAY 10

In the case of `C=C1NC(=O)C(C(C)C)NC(=O)C(C(C)CC)NC(=O)c2nc(oc2-c2ccccc2)-c2coc(n2)-c2csc(n2)-c2coc(n2)-c2coc1n2` (centres unmarked) [IB-01211], the “Net Tumour Growth ± S.E.M.” value ([1]; DAY 1) was 26 ± 11 mm^3, the “Net Tumour Growth ± S.E.M.” value ([1]; DAY 4) was 53 ± 28 mm^3 and the “Net Tumour Growth ± S.E.M.” value ([1]; DAY 8) was 162 ± 34 mm^3. The “antitumour effect in vivo” value ([1]; colon tumour, dose of 0.14 MTD) was “not against colon tumour”, the pIC50 (SK-OV-3) was 6.02 and the pIC50 (LNCAP) was 6.19. It also gave a pIC50 (Hs746t) of 6.16, a pIC50 (SW 694) of 6.14 and a pIC50 (MC116) of 5.47. The pIC50 (SK-HEP-1) was 6.18, the pIC50 5637 was 6.47 and the pIC50 (HT-29) was 6.09. It also gave a pIC50 (FADU) of 6.18, a pIC50 (A549) of 6.04 and a pIC50 (NCI-H187) of 7.53. It also gave a pIC50 (Mel-28) of 6.29, a pIC50 (MX-1) of 6.06 and a pIC50 (HL-60) of 6.85. It also gave a pIC50 (PC-3) of 6.21, a pIC50 (OSA-FH) of 6.14 and a pIC50 (786-O) of 6.16. For the same compound, the pIC50 (K562) was 6.20, the pIC50 (CHSA) was 6.45 and the pIC50 (PANC-1) was 6.37. It also gave a pIC50 (SW-579) of 6.34, a pIC50 (SK-N-MC) of 6.27 and a pIC50 (BT-474) of 6.27. The pIC50 (TT) was 5.36, the pIC50 (DU-145) was 6.32 and the pIC50 (H9) was 6.74. The pIC50 (Y-79) was 7.03, the “Net Tumour Growth ± S.E.M.” value [2, 5] was 5 ± 3 mm^3 and the “Net Tumour Growth ± S.E.M.” value [2, 6] was 113 ± 62 mm^3. The “Net Tumour Growth ± S.E.M.” value [2, 7] was 450 ± 137 mm^3, the “Net Tumour Growth ± S.E.M.” value [2, 8] was “†” and the “Net Tumour Growth ± S.E.M.” value [2, 9] was “†”. The “Net Tumour Growth ± S.E.M.” value [2, 10] was “†”, the “antitumour effect in vivo” value ([2]; breast tumour, dose of 0.29 MTD) was “trend to significance” and the “Net Tumour Growth ± S.E.M.” value [3, 5] was 68 ± 29 mm^3. The “Net Tumour Growth ± S.E.M.” value [3, 6] was 234 ± 11 mm^3, the “Net Tumour Growth ± S.E.M.” value [3, 7] was 561 ± 60 mm^3 and the “Net Tumour Growth ± S.E.M.” value [3, 8] was 11 ± 19 mm^3. The “Net Tumour Growth ± S.E.M.” value [3, 9] was 121 ± 51 mm^3, the “Net Tumour Growth ± S.E.M.” value [3, 10] was 309 ± 71 mm^3 and the “antitumour effect in vivo” value ([3]; human non-small cell lung tumour, dose of 0.43 MTD) was “significant antitumour effect”. The MTD [4] was 3.5 mg/kg.
For `CCC(C)C1NC(=O)c2nc(oc2-c2ccccc2)-c2csc(n2)-c2coc(n2)-c2coc(n2)-c2coc(n2)CNC(=O)C(C(C)C)NC1=O` (centres unmarked), the pIC50 (Hela S3 cells) is given as 7.85.
